| Structure (SMILES) | melting point [°C] |
| --- | --- |
| COC(=O)c1ccc2c3cccc4cccc(c5ccc(C(=O)N(C)c6cc(C(C)(C)C)ccc6C(C)(C)C)c1c25)c43 | 297 to 298 |
| O=C(Nc1ccc(I)cc1)OCc1ccccc1 | 132 to 134 |
| O=C(COc1ccc(-c2ccc(F)cc2)cc1)Nc1cscc1C(=O)O | 244 to 251 |
| CCOC(=O)C1=Cc2cc(C(=O)Cc3ccccc3)ccc2OC1C(F)(F)F (stereo not given) | 136 to 138 |
| C[C@@H]1N=C(c2ccccc2)c2cc(NC(=O)CCCCCCC(=O)O)ccc2N(C)C1=O | 87 to 88 |
| Nc1nc(Cl)cc(OCC2(CO)CCC2)n1 | 125 to 127 |
| O=c1[nH]c2c(c(O)c1[N+](=O)[O-])CCCCC2 | > 264 |
| CC(=NOCCOc1ccc(CC2SC(=O)N(C(c3ccccc3)(c3ccccc3)c3ccccc3)C2=O)cc1)c1ccc(-c2ccccc2)cc1 (stereo not given) | 145 |
| CCOC(=O)C(C)(C)Sc1ccc(OCCn2c(C)nc3ccccc3c2=O)cc1 | 188 to 190 |
| NNC(=O)c1cn2ccccc2n1 | 195 to 198 |
| CCc1nc2c(N)nc3cc(CCCNC(=O)NC(C)C)ccc3c2n1CC1CCOCC1 | 213 to 216 |
| CSc1cc(C)nc(SC)c1NC(=O)CCCCCCCSc1nc2ccccc2s1 | 104 to 108 |
| O=C(O)CCCC(Nc1ccccc1)c1ccc(Cl)cc1 (stereo not given) | 133 to 134 |
| CSCC(C)(C)NC(=O)c1c(NC(=O)c2cc(C(F)(F)F)nn2-c2ncccc2Cl)ccc2cn[nH]c12 | 100 to 105 |
| C=CC(=O)Oc1c(C(C)c2cc(C(C)(C)CC)cc(C(C)(C)CC)c2O)cc(C(C)(C)CC)cc1C(C)(C)CC (stereo not given) | 119 to 121 |
| O=C(O)CCc1cn(Cc2ccc(OCc3csc(-c4ccccc4)n3)cc2)nc1-c1ccccc1 | 132 to 133 |
| CCOC(=O)CNC(=O)CCC(=O)OC | 61 to 62 |
| O=C(O)CCC(=O)OC1CCCN(C(=O)Cn2c(=O)sc3ccc(Cl)cc32)C1 (stereo not given) | 131 to 133 |
| COC(=O)c1cc2cc(OC)c(OC)cc2c(-c2ccnc(-n3c(=O)cc(OCC(=O)OCc4ccccc4)c4ccccc43)c2)c1C(=O)OC | 186 to 189 |
| CC(=O)Oc1ccc(C(=O)Nc2ncc(S(C)(=O)=O)s2)cc1 | 280 to 281 |
| Cc1nc2c(c(=O)[nH]1)-c1cc(S(=O)(=O)Nc3ccc(F)cc3)ccc1CC2 | > 260 |
| COc1ccc(CC2SC(=O)NC2=O)cc1NC(=O)Cc1ccc(C(F)(F)F)cc1 (stereo not given) | 147 to 149 |
| Cc1ccc2nc(N3CCN(c4ncccc4C(F)(F)F)CC3)[nH]c2c1 | 216 to 217 |
| CC(C)n1cc(C(=O)Nc2nccs2)c2ccc(O)cc21 | 239 to 241 |
| CONC(=O)COc1c(-c2ccccc2)c(=O)[nH]c2cc(Cl)ccc12 | 205 to 207 |
| Cc1ccncc1Cn1nnnc1-c1ccc(Cl)c(Cl)c1 | 167 to 169 |
| COc1cccc(-c2nc3ccc(OC)cc3s2)c1 | 155 to 157 |

| Structure (SMILES) | melting point [°C] |
| --- | --- |
| CCNC(=O)Nc1cn2ccc(-c3c(C)noc3C)cc2n1 | 204 to 206 |
| CC(C(=O)O)c1ccc2c(c1)C(=O)Cc1cccnc1S2 (stereo not given) | 141 to 143 |
| CC(O)CNc1nc(NCc2ccccc2N)c2ncn(C(C)C)c2n1 (racemic) | 175 to 179 |
| CC(C)c1nc(-c2ccccc2)nc(-c2ccc(F)cc2)c1C=O | 127 to 129 |
| CCNC(=O)c1ccc(N2CCN(Cc3ccc4c(c3)NC(=O)C(C)O4)CC2)c(Cl)c1 (stereo not given) | 239 to 243 |
| COc1cccc(CC2NC(=O)NC2=O)c1OCc1ccccc1 (racemic) | 202 to 204 |
| O=C(Oc1ccc([N+](=O)[O-])cc1)c1cnc2cc(I)ccc2n1 | 228 to 230 |
| COC[C@H]1CCCN1C(=O)c1cc(-c2ccccc2)c(=O)n2c1-c1sccc1C2 | 150 to 152 |
| C/C(C=O)=C\COc1cccc(O)c1 | 136 to 138 |
| COc1ncc(Br)cc1/C=C/C(=O)c1ccc(Cl)cc1 | 168 to 172 |
| CCC(=C(c1ccccc1)c1ccc(C=Cc2noc(C)n2)cc1)c1ccccc1 | 158 to 159 |
| CO/C=C(/C(=O)OC)c1ccccc1Oc1cccc(O)c1 | 117 to 118 |
| Clc1ccc2c3c(cccc13)C(NCCCCCn1ccnc1)=N2 | 132 to 134 |
| Cc1c(Nc2cc(-c3cccc(C4NCCc5c4sc4c5CC(C)(C)C4)c3CO)cn(C)c2=O)cnn1C (stereo not given) | 164 to 165 |
| CCCOc1ccccc1-c1nc2nc(NCCCS(C)(=O)=O)ncc2c(=O)[nH]1 | 222 to 223 |
| CSc1ccc(-n2c(-c3ccccn3)nc(SC)c(C#N)c2=O)cc1 | 158 to 161 |
| N#CCCNC(=O)c1cccc(-c2cccc(OC3CCCCC3)n2)c1 | 131 to 132 |
| COCc1nc2c(NCc3c(C)cccc3C)cc(C(=O)N(C)C)cc2n1C | 156 to 157 |
| N#Cc1cccn1-c1cc(C(=O)N=C(N)N)cc(C(=O)N=C(N)N)c1 | 251 to 253 |
| CCCN1CCC=C(c2csc(NC(C)=O)n2)C1 | 109 to 112 |
| CC(C)(C)NC(=O)[C@@H]1C[C@H](Cl)CN1C(=O)[C@@H](O)[C@H](Cc1ccccc1)N(Cc1ccccc1)Cc1ccccc1 | 64 to 67 |
| COc1nc2cc(Cl)cc(C)c2nc1OC | 94 to 96 |
| Cc1ccc(C(=O)Nc2c[nH]nc2C(=O)NCCC#N)cc1 | 207 to 209 |
| CC(=O)N1CCc2cc(S(=O)(=O)n3c(CCC(=O)O)cc4cc(C(F)(F)F)ccc43)ccc21 | 205 to 207 |
| O=C(O)CCc1ccc(-c2cccc(-c3ccnc4c(C(=O)c5cccs5)cnn34)c2)cc1 | 117 to 119 |
| O=C1Nc2cc(CN3CC=C(c4ccccc4)CC3)ccc2OC1F (stereo not given) | 239 |

More lines, now with the values ahead:

| melting point [°C] | Structure (SMILES) |
| --- | --- |
| 116 to 117 | CCOC(=NC(=O)c1ccccc1)N1Cc2ccccc2-c2ccccc2C1 |
| 62 to 64 | CC(C)(C)OC(=O)NC1CCN(CC(=O)O)C1=O (stereo not given) |
| 169 to 170 | O=C1N(Cc2ccc(OCc3ccccc3)cc2)c2ccccc2C12COc1cc3c(cc12)CCO3 (stereo not given) |
| 77 to 78 | Clc1ccc(CO[C@H]2CO[C@@H](c3ccccc3)OC2)cc1Cl |
| 148 to 150 | COc1ccc(-c2nc(CN3CCOCC3)nc3cc(OC)c(OC)cc23)cc1OC |
| > 300 | COc1cc2nc(N3CCc4c(cccc4-c4cnccc4N)C3)[nH]c(=O)c2cc1OC |
| > 280 | O=c1n(CC(F)(F)F)c2cc(F)ccc2n1C1CCNCC1 |
| 188 to 189 | C=C1CC(Cn2cc(C)c(=O)[nH]c2=O)(c2ccc(Cl)cc2)OC1=O (stereo not given) |
| 148 to 150 | CSc1ccc(NC(=N)c2ccc(Cl)cc2)cc1 |
| 273 to 277 | CCOC(=O)C(=O)Nc1ccc2c(c1)-c1c(c(C(=O)C(C#N)C(=O)Nc3ccccc3)nn1-c1ccccc1)CS2 (stereo not given) |
| 154 to 157 | N#CC(C=N)CC(=O)c1ccc2ccccc2c1 (stereo not given) |
| 224 | CC(C)CC(CS)C(=O)N[C@H]1Cc2cn(c3ccccc23)CCCCCCNC1=O (stereo not given in full) |
| 125 to 130 | CCOC(=O)c1ccc2c(c1)c(C)c(CBr)n2C(C)=O |
| 158 to 160 | N#Cc1ncc(NCCO)nc1Br |
| 72 | COc1ccc(CN2C(=O)C(C)(c3cc(CN4CCCCC4=O)ccc3Cl)c3cc(Cl)ccc32)c(OC)c1 (stereo not given) |
| 115 to 117 | COCc1cc2c(s1)CCCc1cc(=O)n(-c3ccc(OC)cc3)nc1-2 |
| 125 to 126 | CS(=O)(=O)c1ccc(-c2oncc2CCCO)cc1 |
| 165 to 166 | Cn1c(CC(=O)O)ccc1C(=O)c1ccc(Cl)cc1Cl |
| 258 to 260 | O=c1[nH]c2cc([N+](=O)[O-])ccc2c(=O)n1S(=O)(=O)c1ccc(Cl)cc1 |
| 117 to 119 | CN1CCCC(c2ccccc2)c2[nH]c3ccccc3c2CC1 (stereo not given) |
| 87 to 88 | COc1ccc(CN2CCCc3cc(OCc4ccccc4)c(OC)cc3C2)cc1 |

| melting point [°C] | Structure (SMILES) |
| --- | --- |
| 73 to 76 | COC(=O)c1cccc(Oc2cccc(-c3nnc(N(Cc4ccc(C(F)(F)P(=O)(O)O)c(Cl)c4)c4ccc(Cl)c(Cl)c4)s3)c2)c1 |
| 110 | COc1ccc(CCC(=O)c2c(O)cc(OC)cc2OC)cc1 |
| 103 to 104 | CCC(CC)C(NS(=O)(=O)c1ccc(Cl)s1)c1ncnn1Cc1ccc(C)cc1 (stereo not given) |
| 141 to 142 | OCc1ccccc1NCc1cc2c(cc1O)CCCO2 |
| 160 to 162 | O=S1(=O)N=CN(C2CC2)c2ccc(C(F)(F)F)cc21 |
| 165 to 166 | COc1ccc2cc(C3=C(CC(=O)O)CCCC3=O)ccc2c1Br |
| 190 to 193 | COC(=O)c1c(Cc2ccc(C(=O)CO)cc2)c(=O)c2ccc(C)nc2n1-c1ccccc1 |
| 205 to 208 | COC(=O)c1cnc(N2CCNC2=O)s1 |
| 98 to 109 | O=c1c2c(N3CCNCC3)cc(Cl)cc2n(Cc2ccccc2)c(=O)n1Cc1ccccc1F |
| 112 to 114 | CC(C)(NCC(F)(F)CN)C(CCn1ccnc1[N+](=O)[O-])=NO |
| 129 to 130 | C[C@]1(CN2CCN(C(=O)OCc3cc(Cl)cc(Cl)c3)CC2)Cn2cc([N+](=O)[O-])nc2O1 |
| 193 | CC(=O)c1cccc(NC(=O)NCCN(CCNC(=O)Nc2cccc(C(C)=O)c2)CCNC(=O)Nc2cccc(C(C)=O)c2)c1 |
| 168 to 170 | CC(C)(C)OC(=O)N1CCC(c2ccc(N3C[C@H](CNC(=O)C(Cl)Cl)OC3=O)cc2F)CC1 |
| 141 | CC1C(=O)N(c2ccccc2)C(=S)N1c1ccc(Oc2ccccc2)cc1 (stereo not given) |
| 99 to 100 | CCOC(=O)C1C(Cl)C(=O)N1c1ccc(OC)cc1 (stereo not given) |
| 111 to 113 | COc1ccc(C(=O)CCC(=O)O)cc1OC1CCCC1 |
| 153 to 155 | CC(=O)Nc1nc2c(Oc3cc(-c4ccc(C(F)(F)F)cc4NC(=O)C4CCCCN4CC(C)C)ncn3)cccc2s1 (stereo not given) |
| 140 to 142 | CCOC(=O)c1csc(Nc2ccccc2)n1 |
| 201 to 203 | O=C(c1n[nH]c2ccccc12)N1CCCCC1 |
| 145 to 147 | Cc1ccc2c(c1)CC(N1CCN(CCN3CCOC3=O)CC1)c1cc(C)ccc1O2 (stereo not given) |
| 112 | Cc1cc(NC(=O)OC(C)(C)C)c(N)cc1-c1ccc(F)cc1 |

From a melting point compilation (Tetko et al.; mined from patent text by program, amines drawn as free bases though some values may be those of a salt)
